In US20250313533A1, “QUINOLINE CARBOXYLIC ACID ESTER COMPOUND AND PREPARATION METHOD AND USE THEREOF” (priority 2019, published 2025):

Tests used:
[1] = tested on: pathogenic bacteria causing bacterial angular leaf spot in cucumbers; assay: In vitro bactericidal activity, bacterial angular leaf spot in cucumbers; format: cell-based, pseudomonas; details: read-out: inhibitory rate; for inhibition at 1 ppm: dosage 1 ppm; for inhibition at 5 ppm: dosage 5 ppm
[2] = tested on: pathogenic bacteria causing bacterial wilt in tobacco; assay: whole plant or invertebrate; format: cell-based, ralstonia; details: read-out: inhibitory rate
[3] = tested on: pathogenic bacteria causing black shank in potatoes; assay: In vitro bactericidal activity, black shank in potatoes; format: cell-based; details: read-out: inhibitory rate; for inhibition at 1 ppm: dosage 1 ppm; for inhibition at 5 ppm: dosage 5 ppm
[4] = tested on: pathogenic bacteria causing stem rot in sweet potatoes; assay: In vitro bactericidal activity, stem rot in sweet potatoes; format: cell-based, dikia; details: read-out: inhibitory rate; for inhibition at 1 ppm: dosage 1 ppm; for inhibition at 5 ppm: dosage 5 ppm
[5] = tested on: pathogenic bacteria causing bacterial blight in rice; assay: whole plant or invertebrate; format: cell-based, xanthomonas; details: read-out: inhibitory rate
[6] = tested on: pathogenic bacteria causing fruit blotch in watermelons; assay: In vitro bactericidal activity, fruit blotch in watermelons; format: cell-based, acidovorax; details: read-out: inhibitory rate; for inhibition at 1 ppm: dosage 1 ppm; for inhibition at 5 ppm: dosage 5 ppm
[7] = tested on: pathogenic bacteria causing black rot in Chinese cabbages; assay: In vitro bactericidal activity, black rot in Chinese cabbages; format: cell-based, xanthomonas; details: Xanthomonas, read-out: inhibitory rate; for inhibition at 1 ppm: dosage 1 ppm; for inhibition at 5 ppm: dosage 5 ppm
[8] = tested on: pathogenic bacteria causing bacterial wilt in cassava; assay: organism not typed; format: cell-based; details: read-out: inhibitory rate
[9] = tested on: pathogenic bacteria causing fire blight in pears; assay: In vitro bactericidal activity, fire blight in pears; format: cell-based, erwinia; details: Erwinia, read-out: inhibitory rate; for inhibition at 1 ppm: dosage 1 ppm; for inhibition at 5 ppm: dosage 5 ppm
[10] = tested on: black shank in potatoes; assay: Living crops in vivo protective activity, potatoes (root irrigation); details: Solanum tuberosum, read-out: efficacy against black shank in potatoes; for pest or weed control at 5 ppm: dosage 5 ppm; for pest or weed control at 10 ppm: dosage 10 ppm
Procedure: Root irrigation was carried out on the potatoes for tests according to the designed concentration of the agents. The dosage for each plant was 200 mL and was kept consistent (also for the control). The black shank bacteria were inoculated on the second day after the application. The results were investigated according to the disease condition.

[11] = tested on: indoor potted cucumber seedlings; assay: Effect of improving growth and development of crops; format: in vivo; set-up: Rate of growth rate increase (%): concentration or dose not given beside the values; details: versus blank control; for Rate of chlorophyll content increase (%) / Rate of leaf area increase (%): 14 days after application; for Rate of growth rate increase (%): plant height 14 days after application; for Rate of leaf area increase (%): second leaf
In short: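 Pot-grown seedlings kept indoors; height plus second-leaf length (base to tip) and width (upper shoulder) taken pre-treatment and at day 14. Derived: growth-rate increase %, leaf area gain, SPAD chlorophyll gain.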

[12] = tested on: cucumber seedlings; assay: Safety for plant growth after application; format: in vivo; details: dosage 200 ppm
In short: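 Safety to the crop is assessed on cucumber seedlings in indoor pots by tracking how treatment alters leaf area, chlorophyll level and height growth rate.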

[13] = tested on: bacterial wilt in tobacco; assay: whole plant or invertebrate; details: Nicotiana tabacum, read-out: efficacy against bacterial wilt in tobacco
[14] = tested on: stem rot in sweet potatoes; assay: whole plant or invertebrate; details: read-out: efficacy against stem rot in sweet potatoes
[15] = tested on: bacterial blight in rice; assay: whole plant or invertebrate; details: Oryza sativa, read-out: efficacy against bacterial blight in rice
[16] = tested on: fruit blotch in watermelons; assay: whole plant or invertebrate; details: read-out: efficacy against fruit blotch in watermelons
[17] = tested on: soft rot in Chinese cabbages; assay: whole plant or invertebrate; details: 48 h, read-out: efficacy against soft rot in Chinese cabbages

## CCOc1cc2c(cc1F)c(=O)c(C(=O)OCCOC1CCCC1)cn2C1CC1 [Compound 307]
[1]
  inhibition at 1 ppm: ≥ 90%
  inhibition at 5 ppm: ≥ 90%
[2]
  inhibition at 1 ppm: ≥ 90%
  inhibition at 5 ppm: ≥ 90%
[3]
  inhibition at 1 ppm: ≥ 90%
  inhibition at 5 ppm: ≥ 90%
[4]
  inhibition at 1 ppm: ≥ 90%
  inhibition at 5 ppm: ≥ 90%
[5]
  inhibition at 1 ppm: ≥ 90%
  inhibition at 5 ppm: ≥ 90%
[6]
  inhibition at 1 ppm: ≥ 90%
  inhibition at 5 ppm: ≥ 90%
[7]
  inhibition at 1 ppm: ≥ 90%
  inhibition at 5 ppm: ≥ 90%
[8]
  inhibition at 1 ppm: ≥ 90%
  inhibition at 5 ppm: ≥ 90%
[9]
  inhibition at 1 ppm: ≥ 90%
  inhibition at 5 ppm: ≥ 90%
[10]
  pest or weed control at 5 ppm: ≥ 90%
  pest or weed control at 10 ppm: ≥ 90%
[11]
  Rate of chlorophyll content increase (%): 11%
  Rate of growth rate increase (%): 9%
  Rate of leaf area increase (%): 12%
[12]
  safety for plant growth (discoloration, necrosis, wilt, malformation): safe for plant growth
[13]
  pest or weed control at 5 ppm: ≥ 90%
  pest or weed control at 10 ppm: ≥ 90%
[14]
  pest or weed control at 5 ppm: ≥ 90%
  pest or weed control at 10 ppm: ≥ 90%
[15]
  pest or weed control at 5 ppm: ≥ 90%
  pest or weed control at 10 ppm: ≥ 90%
[16]
  pest or weed control at 5 ppm: ≥ 90%
  pest or weed control at 10 ppm: ≥ 90%
[17]
  pest or weed control at 5 ppm: ≥ 90%
  pest or weed control at 10 ppm: ≥ 90%

## CCOc1cc2c(cc1F)c(=O)c(C(=O)OCCCO)cn2C1CC1 [Compound 309]
[1]
  inhibition at 1 ppm: ≥ 90%
  inhibition at 5 ppm: ≥ 90%
[2]
  inhibition at 1 ppm: ≥ 90%
  inhibition at 5 ppm: ≥ 90%
[3]
  inhibition at 1 ppm: ≥ 90%
  inhibition at 5 ppm: ≥ 90%
[4]
  inhibition at 1 ppm: ≥ 90%
  inhibition at 5 ppm: ≥ 90%
[5]
  inhibition at 1 ppm: ≥ 90%
  inhibition at 5 ppm: ≥ 90%
[6]
  inhibition at 1 ppm: ≥ 90%
  inhibition at 5 ppm: ≥ 90%
[7]
  inhibition at 1 ppm: ≥ 90%
  inhibition at 5 ppm: ≥ 90%
[8]
  inhibition at 1 ppm: ≥ 90%
  inhibition at 5 ppm: ≥ 90%
[9]
  inhibition at 1 ppm: ≥ 90%
  inhibition at 5 ppm: ≥ 90%
[10]
  pest or weed control at 5 ppm: ≥ 90%
  pest or weed control at 10 ppm: ≥ 90%
[11]
  Rate of chlorophyll content increase (%): 16%
  Rate of growth rate increase (%): 12%
  Rate of leaf area increase (%): 15%
[12]
  safety for plant growth (discoloration, necrosis, wilt, malformation): safe for plant growth
[13]
  pest or weed control at 5 ppm: ≥ 90%
  pest or weed control at 10 ppm: ≥ 90%
[14]
  pest or weed control at 5 ppm: ≥ 90%
  pest or weed control at 10 ppm: ≥ 90%
[15]
  pest or weed control at 5 ppm: ≥ 90%
  pest or weed control at 10 ppm: ≥ 90%
[16]
  pest or weed control at 5 ppm: ≥ 90%
  pest or weed control at 10 ppm: ≥ 90%
[17]
  pest or weed control at 5 ppm: ≥ 90%
  pest or weed control at 10 ppm: ≥ 90%

## CCOc1cc2c(cc1F)c(=O)c(C(=O)OCCCOC)cn2C1CC1 [Compound 315]
[1]
  inhibition at 1 ppm: ≥ 90%
  inhibition at 5 ppm: ≥ 90%
[2]
  inhibition at 1 ppm: ≥ 90%
  inhibition at 5 ppm: ≥ 90%
[3]
  inhibition at 1 ppm: ≥ 90%
  inhibition at 5 ppm: ≥ 90%
[4]
  inhibition at 1 ppm: ≥ 90%
  inhibition at 5 ppm: ≥ 90%
[5]
  inhibition at 1 ppm: ≥ 90%
  inhibition at 5 ppm: ≥ 90%
[6]
  inhibition at 1 ppm: ≥ 90%
  inhibition at 5 ppm: ≥ 90%
[7]
  inhibition at 1 ppm: ≥ 90%
  inhibition at 5 ppm: ≥ 90%
[8]
  inhibition at 1 ppm: ≥ 90%
  inhibition at 5 ppm: ≥ 90%
[9]
  inhibition at 1 ppm: ≥ 90%
  inhibition at 5 ppm: ≥ 90%
[10]
  pest or weed control at 5 ppm: ≥ 90%
  pest or weed control at 10 ppm: ≥ 90%
[11]
  Rate of chlorophyll content increase (%): 12%
  Rate of growth rate increase (%): 9%
  Rate of leaf area increase (%): 11%
[12]
  safety for plant growth (discoloration, necrosis, wilt, malformation): safe for plant growth
[13]
  pest or weed control at 5 ppm: ≥ 90%
  pest or weed control at 10 ppm: ≥ 90%
[14]
  pest or weed control at 5 ppm: ≥ 90%
  pest or weed control at 10 ppm: ≥ 90%
[15]
  pest or weed control at 5 ppm: ≥ 90%
  pest or weed control at 10 ppm: ≥ 90%
[16]
  pest or weed control at 5 ppm: ≥ 90%
  pest or weed control at 10 ppm: ≥ 90%
[17]
  pest or weed control at 5 ppm: ≥ 90%
  pest or weed control at 10 ppm: ≥ 90%
